Test [1] deals with [11C]PBB3 binding sites (tau aggregates) in temporal cortex homogenates of an Alzheimer's disease patient (Homo sapiens, UniProt P10636). The test can be described thus: Fluorescence competitive binding assay in vitro ([11C]PBB3 displacement in Alzheimer's disease temporal cortex homogenates). As to conditions: 5 nM [11C]PBB3, AD temporal cortex homogenate (100 μg tissue), 30 min, room temperature. Here is the method: Fluorescence competitive binding assay in vitro was performed as reported previously1. Frozen tissues derived from the temporal cortex of an Alzheimer's disease patient was homogenized in 50 mM Tris-HCl buffer, pH 7.4, containing protease inhibitor cocktail (cOmplete™, EDTA-free; Roche), and stored at −80° C. pending analyses. To assay radioligand binding with homologous or heterologous blockade, these homogenates (100 μg tissue) were incubated with 5 nM [11C]PBB3 (molar radioactivity: 100-150 GBq/μmol) in the absence or presence of unlabeled PBB3 at varying concentrations ranging from 10-11-106 M in Tris-HCl buffer containing 10% ethanol, pH 7.4, for 30 min at room temperature. Non-specific binding of [11C]PBB3 was determined in the presence of 5×10^−7 M PBB3. Samples were run once only and specific radioligand binding was determined as pmol/g tissue. Inhibition constant (Ki) and percentage of displacement were determined by using non-linear regression to fit a concentration-binding plot to one-site and two-site binding models derived from the Cheng-Prusoff equation with GraphPad Prism version 6.0 (GraphPad Software), followed by F-test for model selection. In a one-site homologous blockade model, dissociation constant (Kd) was calculated from homologous competitive binding using this function: Kd=Ki=IC50−Radioligand
Sequence of [11C]PBB3 binding sites (tau aggregates) in temporal cortex homogenates of an Alzheimer's disease patient (P10636 623-695 limits assumed): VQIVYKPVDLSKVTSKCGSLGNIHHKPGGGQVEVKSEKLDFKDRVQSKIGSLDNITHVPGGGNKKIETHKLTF
where IC50 and [Radioligand] stand for the concentration of the competitor inducing 50% inhibition and radioligand concentration, respectively. Experiments with [^11C]PBB3 and unlabeled PBB3 were performed in a dimly lit condition to avoid photoconversion of the compounds. Table B lists Ki values of exemplary test compounds.

The target of test [2] is recombinant tau proteins (human Tau, heparin-fiberized) (Homo sapiens, UniProt P10636). The test can be described thus: Fluorescence quantitative Tau binding assay in vitro. As to conditions: 0.04 uM fiberized recombinant tau, 30 mM Tris pH 7.5, 1 h, fluorometric saturation curve. The method, then:
Expression and Purification of Human Tau Protein
• pET41a-Tau wild type • One Shot® BL21(DE3) Chemically Competent E. coli (Invitrogen, C600003) • Kanamycin sulfate (Sangon Biotech, A506636) • IPTG (Sangon Biotech, A100487) • Pipes buffer (100 mM Pipes, pH6.8, 1 mM EGTA, 1 mM MgSO4) • Hepes buffer (25 mM Hepes, pH7.2, 0.1 mM EDTA, 0.5 mM DTT, 100 mM NaCl) • Q-Sepharose Fast Flow column (GE Healthcare, 17-0510-01) • SP-Sepharose Fast Flow column (GE Healthcare, 17-0729-01) Procedures: Protein Expression: • Step 1: Transform 1 uL expression plasmid pET41a-tau wt into one One Shot® BL21(DE3) Chemically Competent E. coli, on ice 30 min. • Step 2: 42° C. heat shock 90 second and on ice 2 min, 37° C. recovery for 30 min, Plate small amount on LB(Kan+) agar plate incubate overnight at 37° C. • Step 3: Pick and resuspend a single colony in 200 mL liquid culture with 50 ug/mL Kanamycin to produce a starter culture. Inoculate starter culture and shake 200 rpm overnight at 37° C. • Step 4: Add 100× dilution Starter into fresh culture medium (Kan+) shake 200 rpm at 37° C. until OD600=0.8. • Step 5: Add IPTG (final conc. 1 mM) and express protein for 3 hr. • Step 6: Collect cell pellet and store at −80° C. for purification. Protein Purification: • Step 1: Cell pellet was resuspended in Pipes buffer. • Step 2: Sonication and centrifugation (15,000 rpm, 15 min at 4° C. • Step 3: The supernatant was placed in a boiling water bath for 20 min and subsequently centrifuged. The heat-stable proteins in the supernatant were loaded onto a Q-Sepharose Fast Flow column (20 mL) • Step 4: The flow through containing tau was loaded onto SP-Sepharose Fast Flow column (10 mL), eluted with Pipes buffer containing 0.2M NaCl. • Step 6: Fractions containing tau were pooled, concentrated and dialyzed against Hepes buffer, stored at −80° C. • Step 7: Reload SP-Flow through into Q-Sepharose Fast Flow column (20 mL) and SP-Sepharose Fast Flow column (10 mL) again, eluted with Pipes buffer containing 0.2M NaCl. • Step 8: Fractions containing tau were pooled, concentrated and dialyzed against Hepes buffer, stored at −80° C. Repeat step 6-7 twice, Collect all above all elution product and concentrated. Biological Assays Fluorescence Quantitative Tau Binding Assay In Vitro
2 uM of recombinant tau proteins and 15 uM of heparin were fiberized in 30 mM Tris (pH 7.5) buffer by overnight incubation at 37° C. 0.04 uM of recombinant tau proteins which was diluted in 30 mM Tris buffer (pH 7.5) was then reacted with test compounds (containing 1% DMSO) for 1 h. Regarding the fluorometric data, the binding saturation curve was created and the parameter estimation method was conducted using Prism software (GraphPad). Kd values were determined for each of test compounds. Table A lists Kd values of exemplary test compounds.

The test system of test [3] is tau aggregates (tangles/threads) in temporal cortex sections of an AD brain. In words: Histological examination by fluorescence staining of AD brain sections. As to conditions: 0.001% (W/V) compound in 50% ethanol, 30 min, relative to PBB3; for Fluorescent binding Tangle: score for tangles; for Fluorescent binding Thread: score for threads. Type of test: binding, human. The method, then: The fluorescence binding assessment was performed as reported previously^1. For fluorescence labeling with PBB3 and test compounds, deparaffinized temporal cortex sections of an AD brain were incubated in 50% ethanol containing 0.001% (W/V) of PBB3 or test compound at room temperature for 30 min. The samples were rinsed with 50% ethanol for 5 min, dipped into distilled water twice for 3 min, and mounted in non-fluorescent mounting media ([…]; Vector Laboratories). Fluorescence images were captured using a DM4000 microscope (Leica) equipped with a custom filter cube for PBB3 (excitation band-pass at 391-437 nm and suppression low-pass with 458 nm cutoff).

Broadly, the Ki is the dissociation constant of the complex between target and ligand, obtained from inhibition or displacement. A higher Ki goes with lower affinity. In general, Kd refers to a measure of binding affinity in units of concentration.

Sequence of recombinant tau proteins (human Tau, heparin-fiberized) (P10636 whole entry): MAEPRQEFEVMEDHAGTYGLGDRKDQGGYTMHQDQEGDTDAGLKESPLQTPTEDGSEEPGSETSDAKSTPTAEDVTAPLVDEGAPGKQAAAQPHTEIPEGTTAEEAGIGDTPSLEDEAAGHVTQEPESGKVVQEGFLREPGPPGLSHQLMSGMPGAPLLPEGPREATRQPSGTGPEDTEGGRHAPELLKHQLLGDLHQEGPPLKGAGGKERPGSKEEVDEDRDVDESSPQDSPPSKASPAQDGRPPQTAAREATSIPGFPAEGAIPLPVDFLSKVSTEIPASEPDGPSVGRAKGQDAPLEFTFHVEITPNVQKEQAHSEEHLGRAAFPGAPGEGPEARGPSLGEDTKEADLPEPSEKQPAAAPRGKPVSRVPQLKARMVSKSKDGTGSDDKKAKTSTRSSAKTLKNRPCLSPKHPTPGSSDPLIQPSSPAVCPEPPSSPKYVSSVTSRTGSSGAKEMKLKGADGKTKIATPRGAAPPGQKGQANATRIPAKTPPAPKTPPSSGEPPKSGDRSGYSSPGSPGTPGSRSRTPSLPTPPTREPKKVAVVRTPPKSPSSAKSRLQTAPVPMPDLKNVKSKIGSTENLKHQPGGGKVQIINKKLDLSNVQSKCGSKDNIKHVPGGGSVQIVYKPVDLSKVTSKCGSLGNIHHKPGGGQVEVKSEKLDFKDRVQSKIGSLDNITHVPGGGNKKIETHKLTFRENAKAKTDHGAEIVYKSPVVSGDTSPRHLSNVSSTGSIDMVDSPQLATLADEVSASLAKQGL

As for `CNc1ccc(-c2cnc(-c3cc4ccncc4[nH]3)cc2F)cn1` [Compound T, 5-[4-Fluoranyl-6-(1H-pyrrolo[2,3-c]pyridin-2-yl)pyridin-3-yl]-N-methyl-pyridin-2-amine], the affinity in test [1] corresponds to a Ki of 140 nM. Further, in test [2], the Kd is 2510 nM. Also, in test [3], the “Fluorescent binding Tangle” value is on record as 2.5/2.5 and the “Fluorescent binding Thread” value was 2.5/2.5.

`COc1ccc2nc(-c3ccc(-c4ccc(N(C)C)nc4F)cc3)cn2c1` [Compound Q, 6-Fluoranyl-5-[4-(6-methoxyimidazo[1,2-a]pyridin-2-yl)phenyl]-N,N-dimethyl-pyridin-2-amine] yielded a Ki in test [1] of 5 nM. Also, in test [2], the Kd amounted to 520 nM. Besides, in test [3], the “Fluorescent binding Tangle” value is 1 and the “Fluorescent binding Thread” value is listed as 0.5.

On to `Nc1ccc(-c2ccc(-c3cc4cnccc4[nH]3)cc2)cc1F` [Compound L, 3-Fluoro-4′-(1H-pyrrolo[3,2-c]pyridin-2-yl)biphenyl-4-amine], for which, in test [1], the affinity corresponds to a Ki of 5 nM. For the same molecule, in test [2], the Kd came out at 540 nM. In addition, in test [3], the “Fluorescent binding Tangle” value is on record as 2.5 and the “Fluorescent binding Thread” value is 1.5.

In test [1], `CNc1ccc(-c2ccc(-c3cc4ccnc(O)c4[nH]3)cc2)cn1` [Compound C, 2-(4-(6-(Methylamino)pyridin-3-yl)phenyl)-1H-pyrrolo[2,3-c]pyridin-7-ol] yielded a Ki of 25 nM. Besides, the dissociation constant (Kd) in test [2] was 250 nM. Moreover, in test [3], the “Fluorescent binding Tangle” value is on record as 2 and the “Fluorescent binding Thread” value stood at 1.5.

In turn, `CNc1ccc(-c2ccc(-c3cn4cc(NCC(O)CF)ccc4n3)cc2)cn1` (stereo not shown) [Compound P, 1-Fluoro-3-(2-(4-(6-(methylamino)pyridin-3-yl)phenyl)imidazo[1,2-a]pyridin-6-ylamino)propan-2-ol] showed a Ki in test [1] of 45 nM. Moreover, the Kd in test [2] turned out to be 370 nM. Moreover, in test [3], the “Fluorescent binding Tangle” value worked out at 1 and the “Fluorescent binding Thread” value came to 0.

Consider `Nc1ccc2nc(-c3ccc(-c4ccc(NCCF)nc4)cc3)sc2c1` [Compound I, 2-(4-(6-((2-Fluoroethyl)amino)pyridin-3-yl)phenyl)benzo[d]thiazol-6-amine], for which the Ki in test [1] amounted to 5 nM. Besides, the Kd in test [2] worked out at 800 nM. Also, in test [3], the “Fluorescent binding Tangle” value stood at 2 and the “Fluorescent binding Thread” value came out at 1.5.

For the molecule `CNc1ccc(-c2cc(F)c(-c3cc4ccncc4[nH]3)cn2)cn1` [Compound R, 4-Fluoro-N-methyl-5-(1H-pyrrolo[2,3-c]pyridin-2-yl)-2,3′-bipyridin-6′-amine], affinity in test [1] was put at a Ki of 15 nM. The Kd in test [2] is 1820 nM. In test [3], the “Fluorescent binding Tangle” value is listed as 3/3 and the “Fluorescent binding Thread” value is reported as 3/3.

Values taken from patent US12116364B2, “Heteroaryl compounds and uses thereof” (APRINOIA THERAPEUTICS INC., priority 2018, dated 2024).
